Measurements taken from publication PMC5829251, “NAD^+ analog reveals PARP-1 substrate-blocking mechanism and allosteric communication from catalytic center to DNA-binding domains” (Nature Communications, 2018).
Entries after “also recorded” stand apart in the source; their conditions may differ.

Legend:
PARP-1 = target: T1, PARP-1 (Homo sapiens, UniProt P09874); experiment: HXMS analysis of PARP-1 dynamics; details: for HX of an ART active site peptide (a.a. 901–917): 10^4 s time point, PARP-1 alone or in complex with DNA
T1 construct: Full-length PARP-1 WT (residues 1–1014) was cloned in pET28 vector; made in house; host or cells: E. coli
Method: Deuterium on-exchange was carried out at RT by mixing 5 µL of each sample (8 µM concentration) with 15 µL of deuterium on-exchange buffer (10 mM HEPES, pD 7.0, 150 mM NaCl, in D2O) yielding a final D2O concentration of 75%. pD values for deuterium-based buffers were calculated as pD = pH + 0.41[38]. Upon mixing with on-exchange buffer, the amide protons will be replaced over time with deuterons yielding an increased peptide mass. To quench the deuterium exchange reaction, the sample (20 µl) was mixed with 30 µl of ice-cold quench buffer (1.66 M guanidine hydrochloride, 10% glycerol, and 0.8% formic acid, for a final pH of 2.4–2.5) and rapidly frozen in liquid nitrogen. For the MS analysis, each sample (50 µL) was melted on ice and loaded onto an in-house packed pepsin column for digestion. Pepsin (Sigma) was coupled to POROS 20 AL support (Applied Biosystems), and the immobilized pepsin was packed into a column housing (2 mm × 2 cm, Upchurch). Pepsin-digested peptides were captured on TARGA C8 5 µm Piccolo HPLC column (1.0 × 5.0 mm, Higgins Analytical) and eluted through an analytical C18 HPLC column (0.3 × 75 mm, Agilent) by a shaped 12–100% buffer B gradient at 6 µL per min (Buffer A: 0.1% formic acid; Buffer B: 0.1% formic acid, 99.9% acetonitrile). The effluent was electrosprayed into the mass spectrometer. Non-deuterated (ND) PARP-1 samples were prepared in 10 mM HEPES, pH 7.0, 150 mM NaCl buffer, and mixed with the quench buffer to mimic the samples from on-exchange reaction. Peptides of ND samples were analyzed in tandem MS (LTQ Orbitrap XL, Thermo Fisher Scientific). We analyzed MS/MS data collected from these samples to identify potential PARP-1 peptides using SEQUEST (Bioworks v3.3.1, Thermo Fisher Scientific) with a peptide tolerance of 8 ppm and a fragment tolerance of 0.1 AMU. Deuterated samples were then analyzed on an Exactive Plus EMR-Orbritrap (Thermo Fisher Scientific). A MATLAB based program, ExMS[39] was used for HXMS data processing. […] The level of deuteration of individual peptides was measured by comparing them to the ND sample. […] For each peptide, we compare the extent of deuteration as measured in the FD sample to the theoretical maximal deuteration (i.e., if no back-exchange occurs); the median extent of back-exchange in our datasets is only 15%.
Peptide plotting and calculations were performed in MATLAB. […] For comparing two different HXMS datasets, we plot the percent difference of each peptide, which is calculated by subtracting the percent deuteration of one sample from that of another, and plotted according to the color legend in stepwise increments (as in Fig. 5b). […]

PARP-1 WT = target: T2, PARP-1 WT (Homo sapiens, UniProt P09874); experiment: Fluorescence polarization DNA competition assay, PARP-1 WT; assay type: binding; details: 40 nM PARP-1 WT, 20 nM labeled DNA, compound 500 μM, competitor 100 nM
T2 construct: Full-length PARP-1 WT (residues 1–1014) was cloned in pET28 vector; made in house; host or cells: E. coli
Method: For the DNA competition assay, 40 nM PARP-1 WT, or PARP-1 ΔHD, was incubated with 20 nM of dumbbell DNA with a central nick carrying an internal fluorescent FAM group (5′-GCT GAG C/FAMT/T CTGGTGAAGCTCAGCTCGCGGCAGCTGGTGCTGCCGCGA-3′) for 30 min at RT in 12 mM Hepes pH 8.0, 60 mM KCl, 8 mM MgCl2, 4% glycerol, 5.7 mM beta-mercaptoethanol, 0.05 mg per ml bovine serm albumin with or without BAD or benzamide (500 μM). A competitor unlabeled DNA of the same sequence was added at 100 nM and FP was measured over time on a VictorV plate reader (Perkin Elmer). For the DNA affinity measurement assay, increasing concentrations of PARP-1 WT were incubated for 30 min at RT with 5 nM of dumbbell DNA probe carrying a nick (described above) in the absence or presence of BAD or benzamide (100 μM) in the following buffer: 12 mM Hepes pH 8.0, 250 mM NaCl, 4% glycerol, 5.7 mM beta-mercaptoethanol, 0.05 mg per ml bovine serum albumin.

PARP-1 CAT domain WT = target: T3, PARP-1 CAT domain WT (Homo sapiens, UniProt P09874); experiment: Differential scanning fluorimetry (DSF), PARP-1 CAT WT; assay type: binding; details: for change of apparent TM of PARP-1 CAT WT (evidence of binding): 5 μM protein, various amounts of compound; for TM: in °C (unit assumed)
T3 construct: The PARP-1 CAT WT (residues 661–1014) was cloned in pET28 vector; made in house; host or cells: E. coli
Method: DSF experiments were performed as described, [13] using 5 µM protein, 2.5 µM DNA when indicated and various concentrations of compound (BAD, carba-NAD^+, benzamide, and ADP-ribose) as indicated in Fig. 1 and Fig. 3. Experiments were performed on a Roche LightCycler 480 RT-PCR. Reactions including DNA were performed with a 26- or 28-base pair (bp) unphosphorylated oligonucleotide for PARP-1, a 28-bp 5´-phosphorylated (5´P) oligonucleotide for PARP-2, and a 47-bp oligonucleotide including a central 5´P nick for PARP-3^13 in the following buffer: 25 mM Hepes pH 8.0, 150 mM NaCl, 1 mM EDTA, and 0.1 mM TCEP. Reactions with PARP-3 were conducted at lower ionic strength to allow binding to DNA as described (25 mM Hepes pH 8.0, 50 mM NaCl, 1 mM EDTA and 0.1 mM TCEP)[13]. ΔTM values were calculated by subtracting the TM determined for the protein in the absence of compound from the TM determined in the presence of compound. Experiments were performed in triplicate and a Boltzmann sigmoid was fit to the data to determine the TM values (KaleidaGraph).

[1] = Figure 1e, CAT WT 5 μM, compound 25 µM, TM without compound 51.58
[2] = Figure 1e, CAT WT 5 μM, compound 150 µM, TM without compound 51.58
[3] = Figure 1e, CAT WT 5 μM, compound 750 µM, TM without compound 51.58
[4] = Figure 1e, CAT WT 5 μM, compound 1500 µM, TM without compound 51.58

T3 sequence (P09874 661-1014): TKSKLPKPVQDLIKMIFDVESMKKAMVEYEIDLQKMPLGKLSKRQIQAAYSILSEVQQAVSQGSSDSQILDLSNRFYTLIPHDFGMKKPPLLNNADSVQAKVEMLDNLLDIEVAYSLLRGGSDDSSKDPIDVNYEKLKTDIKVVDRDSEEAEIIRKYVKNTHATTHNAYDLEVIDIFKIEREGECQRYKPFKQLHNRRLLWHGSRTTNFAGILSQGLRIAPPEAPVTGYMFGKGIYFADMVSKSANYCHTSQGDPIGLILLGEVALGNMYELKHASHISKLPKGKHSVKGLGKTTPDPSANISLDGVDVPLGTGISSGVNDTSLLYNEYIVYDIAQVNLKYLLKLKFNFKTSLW
T1 sequence (P09874 whole entry, the tested form may be a part): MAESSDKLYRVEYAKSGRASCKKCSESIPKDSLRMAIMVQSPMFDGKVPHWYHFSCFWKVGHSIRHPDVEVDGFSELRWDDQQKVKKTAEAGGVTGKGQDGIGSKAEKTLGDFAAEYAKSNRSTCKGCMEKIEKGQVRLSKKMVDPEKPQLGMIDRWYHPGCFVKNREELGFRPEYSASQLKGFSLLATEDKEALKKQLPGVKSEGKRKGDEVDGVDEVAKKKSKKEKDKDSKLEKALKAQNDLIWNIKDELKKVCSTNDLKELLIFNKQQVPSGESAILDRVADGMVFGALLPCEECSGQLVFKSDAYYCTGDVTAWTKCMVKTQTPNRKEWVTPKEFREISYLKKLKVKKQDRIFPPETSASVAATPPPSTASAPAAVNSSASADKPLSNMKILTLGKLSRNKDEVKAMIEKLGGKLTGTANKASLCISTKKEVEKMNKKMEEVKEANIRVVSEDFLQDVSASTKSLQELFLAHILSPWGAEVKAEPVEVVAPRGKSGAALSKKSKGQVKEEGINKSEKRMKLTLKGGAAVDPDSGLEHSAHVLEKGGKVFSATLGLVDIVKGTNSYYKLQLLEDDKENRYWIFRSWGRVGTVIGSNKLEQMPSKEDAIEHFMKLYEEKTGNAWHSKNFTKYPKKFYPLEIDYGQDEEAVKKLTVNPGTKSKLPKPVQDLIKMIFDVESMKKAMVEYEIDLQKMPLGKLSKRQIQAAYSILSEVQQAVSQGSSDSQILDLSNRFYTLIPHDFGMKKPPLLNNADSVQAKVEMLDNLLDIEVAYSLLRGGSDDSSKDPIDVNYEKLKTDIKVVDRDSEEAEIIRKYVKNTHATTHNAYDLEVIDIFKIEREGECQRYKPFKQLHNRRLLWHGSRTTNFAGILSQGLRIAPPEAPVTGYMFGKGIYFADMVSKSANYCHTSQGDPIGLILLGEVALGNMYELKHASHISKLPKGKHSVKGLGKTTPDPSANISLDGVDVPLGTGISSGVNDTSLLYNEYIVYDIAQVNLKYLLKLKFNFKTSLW
T2 sequence (P09874 whole entry, the tested form may be a part): as above

Row | SMILES | HX in peptides localized to HD helices αB and αF (PARP-1; 10^2 s time point, PARP-1 bound to a DNA strand break) | HX of an ART active site peptide (a.a. 901–917) (PARP-1) | HX in regions outside of the CAT (domain-domain and domain-DNA interfaces) (PARP-1; PARP-1 in complex with DNA, not in the absence of DNA) | exchange of PARP-1 from labeled to unlabeled competitor DNA (PARP-1 WT) | change of apparent TM of PARP-1 CAT WT (evidence of binding) (PARP-1 CAT domain WT) | increase in TM of PARP-1 CAT containing the HD (PARP-1 CAT domain WT; 4 mM BAD) | TM (PARP-1 CAT domain WT; [1]) | TM (PARP-1 CAT domain WT; [2]) | TM (PARP-1 CAT domain WT; [3]) | TM (PARP-1 CAT domain WT; [4]) | TM (PARP-1 CAT domain WT; Figure 1d, CAT WT 5 μM, compound 50 µM, TM without compound 51.23) | TM (PARP-1 CAT domain WT; Figure 1d, CAT WT 5 μM, compound 250 µM, TM without compound 51.23) | TM (PARP-1 CAT domain WT; Figure 1d, CAT WT 5 μM, compound 1250 µM, TM without compound 51.23) | TM (PARP-1 CAT domain WT; Figure 3d, PARP-1 CAT 5 μM, BAD 4 mM, TM without BAD 51.04)
1 | NC(=O)c1cccc(C2OC(COP(=O)(O)OP(=O)(O)OCC3OC(n4cnc5c(N)ncnc54)C(O)C3O)C(O)C2O)c1 (stereo not drawn) [BAD, benzamide adenine dinucleotide] | increased HX | only observed with PARP-1 in complex with DNA | decrease in HX | greatly prevented the exchange | neither BAD nor carba-NAD^+ changed the apparent TM; also recorded: did not show evidence of binding | no increase in TM | 51.48 | 51.45 | 51.64 | 51.60 | 51.06 | 51.09 | 51.30 | 51.21
2 | NC(=O)c1ccccc1 [benzamide] | – | decreased HX in the same ART peptide for both PARP-1 alone and PARP-1 in complex with DNA | – | did not affect PARP-1 release | increased the TM | – | 52.53 | 54.28 | 54.86 | 57.12 | – | – | – | –
